Series [1] has as its system EoE fibroblasts and esophageal epithelial cells. Nature of the series: COMP expression in cells treated in vitro with recombinant TGFb1. Format: cell-based, human. The conditions noted are these: p<0.0001. The method, then:
Primary esophageal fibroblasts from EoE patients were used. The fibroblast were treated in vitro with recombinant TGFb1. […] Biopsies were scored using a standardized histology score. […] COMP expression correlated with fibrosis (r=[…]), basal zone hyperplasia (r=0.59, p<0.0001), and eosinophilia (r=0.54, p<0.0001).

For series [2] the following is noted: cited from earlier work.

Regarding “TGFb1: recombinant TGFb1, the canonical pro-fibrotic molecule transforming growth factor-beta-1”, the COMP expression induction entry in series [1] is given as “up to 6000 fold”. Take `CCc1ccc(CCOc2ccc(CC3SC(=O)NC3=O)cc2)nc1` (centres unmarked) [Pioglitazone, pioglitazone]: the “tolerability / drug-related adverse events compared to placebo” value in series [2] is given as “no major drug-related adverse events”.

The values above are taken from US20220170944A1, “MATERIALS AND METHODS FOR IDENTIFYING AND TREATING EOSINOPHILIC DISORDERS” (The Regents of the University of California, priority 2019, published 2022).
